Assay: xn = mol fraction of the nth substance listed
Conditions: 101 kPa

CC(O)C(=O)[O-].C[N+](C)(C)CCO + O
viscosity (293.15 K, x2 = 0): 818 mPa·s
viscosity (293.15 K, x2 = 0.0992): 620 mPa·s
viscosity (293.15 K, x2 = 0.2048): 478 mPa·s
viscosity (293.15 K, x2 = 0.3008): 375 mPa·s
viscosity (293.15 K, x2 = 0.4038): 259.2 mPa·s
viscosity (293.15 K, x2 = 0.5858): 117.8 mPa·s
viscosity (293.15 K, x2 = 0.701): 59.52 mPa·s
viscosity (298.15 K, x2 = 0.0992): 433 mPa·s
viscosity (298.15 K, x2 = 0.2048): 336.9 mPa·s
viscosity (298.15 K, x2 = 0.3008): 266.4 mPa·s
viscosity (298.15 K, x2 = 0.5026): 128 mPa·s
viscosity (298.15 K, x2 = 0.701): 45.76 mPa·s
viscosity (298.15 K, x2 = 0.8998): 6.185 mPa·s
viscosity (303.15 K, x2 = 0): 393 mPa·s
viscosity (303.15 K, x2 = 0.2048): 242.5 mPa·s
viscosity (303.15 K, x2 = 0.3008): 193.6 mPa·s
viscosity (303.15 K, x2 = 0.4038): 138.2 mPa·s
viscosity (303.15 K, x2 = 0.5026): 95.8 mPa·s
viscosity (303.15 K, x2 = 0.5858): 66.88 mPa·s
viscosity (303.15 K, x2 = 0.701): 35.7 mPa·s
viscosity (303.15 K, x2 = 0.7993): 16.85 mPa·s
viscosity (303.15 K, x2 = 0.8998): 5.25 mPa·s
viscosity (308.15 K, x2 = 0): 283.9 mPa·s
viscosity (308.15 K, x2 = 0.0992): 225.3 mPa·s
viscosity (308.15 K, x2 = 0.2048): 178.9 mPa·s
viscosity (308.15 K, x2 = 0.4038): 104.4 mPa·s
viscosity (308.15 K, x2 = 0.5026): 73.36 mPa·s
viscosity (308.15 K, x2 = 0.5858): 51.91 mPa·s
viscosity (308.15 K, x2 = 0.701): 28.36 mPa·s
viscosity (308.15 K, x2 = 0.7993): 13.79 mPa·s
viscosity (313.15 K, x2 = 0): 209.9 mPa·s
viscosity (313.15 K, x2 = 0.0992): 168.3 mPa·s
viscosity (313.15 K, x2 = 0.2048): 134.9 mPa·s
viscosity (313.15 K, x2 = 0.3008): 107.7 mPa·s
viscosity (313.15 K, x2 = 0.4038): 80.45 mPa·s
viscosity (313.15 K, x2 = 0.5026): 57.24 mPa·s
viscosity (313.15 K, x2 = 0.5858): 41.04 mPa·s
viscosity (313.15 K, x2 = 0.701): 22.9 mPa·s
viscosity (313.15 K, x2 = 0.7993): 11.44 mPa·s
viscosity (318.15 K, x2 = 0): 158.7 mPa·s
viscosity (318.15 K, x2 = 0.0992): 128.4 mPa·s
viscosity (318.15 K, x2 = 0.2048): 103.9 mPa·s
viscosity (318.15 K, x2 = 0.3008): 85.2 mPa·s
viscosity (318.15 K, x2 = 0.4038): 63.16 mPa·s
viscosity (318.15 K, x2 = 0.5026): 45.5 mPa·s
viscosity (318.15 K, x2 = 0.5858): 32.99 mPa·s
viscosity (318.15 K, x2 = 0.701): 18.78 mPa·s
viscosity (318.15 K, x2 = 0.8998): 3.405 mPa·s
viscosity (323.15 K, x2 = 0): 122.3 mPa·s
viscosity (323.15 K, x2 = 0.0992): 99.8 mPa·s
viscosity (323.15 K, x2 = 0.2048): 81.5 mPa·s
viscosity (323.15 K, x2 = 0.3008): 67.27 mPa·s
viscosity (323.15 K, x2 = 0.4038): 50.43 mPa·s
viscosity (323.15 K, x2 = 0.5026): 36.74 mPa·s
viscosity (323.15 K, x2 = 0.5858): 26.93 mPa·s
viscosity (323.15 K, x2 = 0.8998): 3.001 mPa·s
viscosity (328.15 K, x2 = 0): 95.9 mPa·s
viscosity (328.15 K, x2 = 0.0992): 78.9 mPa·s
viscosity (328.15 K, x2 = 0.2048): 64.95 mPa·s
viscosity (328.15 K, x2 = 0.3008): 54 mPa·s
viscosity (328.15 K, x2 = 0.4038): 40.89 mPa·s
viscosity (328.15 K, x2 = 0.5026): 30.11 mPa·s
viscosity (328.15 K, x2 = 0.5858): 22.29 mPa·s
viscosity (328.15 K, x2 = 0.701): 13.14 mPa·s
viscosity (328.15 K, x2 = 0.8998): 2.666 mPa·s
viscosity (333.15 K, x2 = 0): 76.5 mPa·s
viscosity (333.15 K, x2 = 0.0992): 63.39 mPa·s
viscosity (333.15 K, x2 = 0.4038): 33.61 mPa·s
viscosity (333.15 K, x2 = 0.5026): 24.92 mPa·s
viscosity (333.15 K, x2 = 0.5858): 18.67 mPa·s
viscosity (333.15 K, x2 = 0.7993): 6.101 mPa·s
viscosity (333.15 K, x2 = 0.8998): 2.384 mPa·s
viscosity (338.15 K, x2 = 0): 61.9 mPa·s
viscosity (338.15 K, x2 = 0.0992): 51.63 mPa·s
viscosity (338.15 K, x2 = 0.2048): 43.1 mPa·s
viscosity (338.15 K, x2 = 0.3008): 36.28 mPa·s
viscosity (338.15 K, x2 = 0.4038): 27.97 mPa·s
viscosity (338.15 K, x2 = 0.5026): 20.93 mPa·s
viscosity (338.15 K, x2 = 0.5858): 15.82 mPa·s
viscosity (338.15 K, x2 = 0.701): 9.621 mPa·s
viscosity (338.15 K, x2 = 0.7993): 5.323 mPa·s
viscosity (338.15 K, x2 = 0.8998): 2.146 mPa·s
viscosity (343.15 K, x2 = 0): 50.76 mPa·s
viscosity (343.15 K, x2 = 0.0992): 42.6 mPa·s
viscosity (343.15 K, x2 = 0.2048): 35.8 mPa·s
viscosity (343.15 K, x2 = 0.3008): 30.3 mPa·s
viscosity (343.15 K, x2 = 0.4038): 23.55 mPa·s
viscosity (343.15 K, x2 = 0.5026): 17.78 mPa·s
viscosity (343.15 K, x2 = 0.5858): 13.55 mPa·s
viscosity (343.15 K, x2 = 0.701): 8.353 mPa·s
viscosity (343.15 K, x2 = 0.7993): 4.692 mPa·s
viscosity (343.15 K, x2 = 0.8998): 1.941 mPa·s
viscosity (348.15 K, x2 = 0): 42.13 mPa·s
viscosity (348.15 K, x2 = 0.0992): 35.55 mPa·s
viscosity (348.15 K, x2 = 0.2048): 30.05 mPa·s
viscosity (348.15 K, x2 = 0.3008): 25.59 mPa·s
viscosity (348.15 K, x2 = 0.4038): 20.05 mPa·s
viscosity (348.15 K, x2 = 0.5026): 15.25 mPa·s
viscosity (348.15 K, x2 = 0.5858): 11.71 mPa·s
viscosity (348.15 K, x2 = 0.701): 7.305 mPa·s
viscosity (348.15 K, x2 = 0.7993): 4.171 mPa·s
viscosity (353.15 K, x2 = 0): 35.38 mPa·s
viscosity (353.15 K, x2 = 0.2048): 25.52 mPa·s
viscosity (353.15 K, x2 = 0.3008): 21.82 mPa·s
viscosity (353.15 K, x2 = 0.4038): 17.22 mPa·s
viscosity (353.15 K, x2 = 0.5026): 13.2 mPa·s
viscosity (353.15 K, x2 = 0.5858): 10.2 mPa·s
viscosity (353.15 K, x2 = 0.701): 6.438 mPa·s

Reference: a compilation of properties of binary mixtures (doi:10.1039/c3ra40303c)
